This assay addresses T1, cloned human dopamine D3 receptors (Homo sapiens, UniProt P35462).
T1 construct: expressed in transfected cells; membrane homogenate
Put plainly: [N-Methyl-3H]Spiroperidol binding to cloned human dopamine D3 receptors (Protocol 1). The procedure, abridged:
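Radioligand displacement with [N-methyl-3H]spiroperidol used a physiological-salt Tris buffer (0.05 M, pH 7.7; NaCl 120 mM, KCl 5 mM, CaCl2 2 mM, MgCl2 1 mM) and membranes of a high-expressing stable CHO clone carrying human D3. Total ligand concentration came from measured added CPM; 0.1% ascorbic acid was optional for oxidizable compounds.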

[1] abbreviates: the 17th table, read-out: D3 Ki.
The mark [2] stands for this setting: the 13th table, unit inferred, read-out: D3Ki.
Where [3] appears, read: the 14th table, read-out: D3 Ki.
Setting [4] is: the 23rd table, read-out: D3 Ki.
The mark [5] stands for this setting: the 16th table, read-out: D3 Ki.
The mark [6] stands for this setting: the 15th table, read-out: D3 Ki.
Setting [7] is: the 18th table, read-out: D3 Ki.
Where [8] appears, read: the 21st table, read-out: D3 Ki.

Read-outs that look alike come from different tables or passages of the source.

T1 sequence (P35462 whole entry): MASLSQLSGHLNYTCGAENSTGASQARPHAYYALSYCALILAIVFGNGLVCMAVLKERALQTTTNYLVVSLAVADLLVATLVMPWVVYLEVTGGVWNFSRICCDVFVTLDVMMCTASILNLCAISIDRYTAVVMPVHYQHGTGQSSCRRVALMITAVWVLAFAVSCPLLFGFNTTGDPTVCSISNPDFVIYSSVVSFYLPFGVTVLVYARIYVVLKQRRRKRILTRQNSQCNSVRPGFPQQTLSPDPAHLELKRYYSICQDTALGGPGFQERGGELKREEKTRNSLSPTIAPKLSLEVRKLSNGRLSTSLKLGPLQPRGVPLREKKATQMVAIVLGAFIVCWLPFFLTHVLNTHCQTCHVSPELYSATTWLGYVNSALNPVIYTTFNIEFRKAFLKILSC

Turning to `O=C(NCC(CO)CCN1CCN(c2csc3cc(C(F)(F)F)ccc23)CC1)c1ccc2[nH]ccc2c1` (stereo not drawn) [818931ES], for the setting “Table 2, read-out: D3K1”, the Ki was 97.2 nM.
Consider `O=C(NCC1CC1CN1CCCN(c2csc3cc(F)ccc23)CC1)c1cc2ccccc2s1` (racemic) [compound 830407], for which the Ki under setting [1] amounted to 10.4 nM.
`O=C(NCCCCN1CCN(c2c(Cl)sc3cc(F)ccc23)CC1)c1ccc(Cl)cc1` [compound 815060]: where the note is “read-out: D3K1”, the Ki was 6.2 nM.
As for `Cn1c(C(=O)NCCCCCN2CCCN(c3csc4cc(F)ccc34)CC2)cc2ccccc21` [S984506], under setting [2], the Ki was found to be 33.4 nM.
For the molecule `COc1cc(OC)cc(C(=O)NCCCCCN2CCN(c3csc4cc(C(F)(F)F)ccc34)CC2)c1` [compound 826766], the Ki worked out at 11 nM (read-out: D3K1) and 11 nM under setting [3].
Take `O=C(NC/C=C/CN1CCN(c2csc3cc(C(F)(F)F)ccc23)CC1)c1cccc(Cl)c1` [compound 827718]: the Ki (read-out: D3K1) is 150 nM.
For the molecule `O=C(NCCCCCN1CCC(c2noc3ccsc23)CC1)c1ccc(F)cc1` [compound 816217], the Ki under setting [2] turned out to be 364 nM.
With `O=C1NCCN1CCNCC1CC1CN1CCN(c2csc3cc(C(F)(F)F)ccc23)CC1` (racemic) [compound 832609], the Ki under setting [4] was 39.6 nM.
Turning to `COc1cccc2oc(C(=O)NCCCCN3CCCN(c4csc5cc(F)ccc45)CC3)cc12` [compound 827128], the Ki is, setting by setting: (Table 2, read-out: D3K1) 19.1 nM; under setting [5], 19.1 nM.
For `O=C(NCCCCN1C2CCC1CC(c1noc3cc(F)ccc13)C2)c1cccc2ccccc12` (stereo not drawn) [compound 816330], the Ki under setting [6] worked out at 186 nM.
`O=C(NCCCCN1CCCN(c2csc3cc(F)ccc23)CC1)c1cccc2ccccc12` [compound 822153]: the Ki under setting [2] was found to be 6.1 nM.
As to `CC1(C)C(CNC(=O)c2ccc3ccccc3c2)C1CN1CCN(c2csc3cc(C(F)(F)F)ccc23)CC1` (stereo not drawn) [compound 826277], the Ki (read-out: D3K1) amounted to 20.3 nM.
`O=C(NCc1sccc1CN1CCN(c2csc3cc(F)ccc23)CC1)c1cc2ccccc2[nH]1` [compound 826322]: the Ki under setting [7] is 296 nM.
`O=C(NCCCCN1CCN(c2nn(C(=O)c3ccc(F)c(F)c3)c3ccsc23)CC1)c1ccc(F)c(F)c1` [compound 825150]: the Ki (the 22nd table, read-out: D3 Ki) amounted to 199 nM.
For `COc1ccc(C(=O)NC/C=C\CN2CCN(c3csc4cc(C(F)(F)F)ccc34)CC2)cc1` [compound 827734], the Ki (Table 2, read-out: D3K1) came out at 37.3 nM.
For `O=C(NCCCCN1CCCN(c2csc3cc(C(F)(F)F)ccc23)CC1)c1cc2ccccc2s1` [S980636], the Ki under setting [2] is 18 nM.
`O=C(NCCCCN1CCN(c2csc3cc(C(F)(F)F)ccc23)CC1)c1ccccc1Br` [compound 815558]: the Ki (read-out: D3K1) was 23 nM.
For `CC(=O)Nc1ccc(C(=O)N[C@@H](CO)CCCN2CCN(c3csc4cc(C(F)(F)F)ccc34)CC2)cc1` [compound 815667], the Ki came to 203 nM (read-out: D3K1) and 203 nM under setting [3].
Turning to `COc1ccc(C(=O)NCCCCN2[C@H](C)CN(c3csc4cc(C(F)(F)F)ccc34)C[C@@H]2C)cc1OC` [compound 826930], under setting [8], the Ki stood at 74.7 nM.
In the case of `O=C(N[C@H](CO)CCCN1CCN(c2csc3cc(C(F)(F)F)ccc23)CC1)c1ccc(-c2ccccc2)cc1` [compound 815694], the Ki runs as follows: (Table 2, read-out: D3K1) 197 nM; (read-out: D3K1) 197 nM; under setting [3], 197 nM.
As to `c1cc2onc(C3CCN(CC4CC4CN4CCC(c5noc6ccsc56)CC4)CC3)c2s1` (racemic) [831205DA], the Ki under setting [4] stood at 6.38 nM.
With `O=C(NCCCCCCN1CCN(c2csc3cc(C(F)(F)F)ccc23)CC1)c1ccc2ccccc2c1` [compound 826751], the Ki (read-out: D3K1) came to 2.8 nM and the Ki under setting [3] is 2.8 nM.
In the case of `O=C(NCCCCN1CCCN(c2csc3cc(C(F)(F)F)ccc23)CC1)c1cc2ccccc2o1` [S984513], the Ki under setting [2] came out at 19 nM.
Regarding `N#Cc1cccc(C(=O)NC/C=C\CN2CCN(c3csc4cc(C(F)(F)F)ccc34)CC2)c1` [compound 826343], the Ki (read-out: D3K1) is 53 nM.
In the case of `C[C@@H]1CN(c2csc3cc(C(F)(F)F)ccc23)C[C@H](C)N1CCCCNC(=O)c1cccc2[nH]ccc12` [compound 826953], the Ki under setting [8] turned out to be 222 nM.
As to `OC(CCN1CCC(c2noc3ccsc23)CC1)CN1CCN(c2ccc(F)cc2)CC1` (stereo not drawn) [compound 831939], the Ki (the 26th table, read-out: D3 Ki) was 90 nM.
As to `Nc1ccc(C(=O)NCCCCN2CCCN(c3csc4cc(F)ccc34)CC2)cc1` [compound 817258], the Ki (Table 2, read-out: D3K1) is 3.13 nM and the Ki under setting [5] came to 3.13 nM.
In the case of `O=C(NCCCCN1C2CCC1CC(c1noc3ccccc13)C2)c1cccs1` (stereo not drawn) [compound 816519], the Ki under setting [6] worked out at 305 nM.
For `COc1ccc2[nH]c(C(=O)NCCCCCN3CCCN(c4csc5cc(F)ccc45)CC3)cc2c1` [S984505], the Ki under setting [2] was 13 nM.
For `O=C(NCCCCN1C2CCC1CC(c1noc3cc(F)ccc13)C2)c1cccc(F)c1F` (stereo not drawn) [compound 816329], under setting [6], the Ki was 356 nM.
Regarding `Cc1ccc(C(=O)NCC2CC2CN2CCCN(c3csc4cc(F)ccc34)CC2)cc1` (racemic) [compound 830403], the Ki under setting [1] was found to be 59.9 nM.
`Nc1ccc(O)cc1C(=O)NCCCCN1CCCN(c2csc3cc(F)ccc23)CC1` [compound 817264]: the Ki is 6.44 nM (Table 2, read-out: D3K1) and 6.44 nM under setting [5].
For `CC1=C(C(=O)NCCCCN2[C@H](C)CN(c3csc4cc(F)ccc34)C[C@@H]2C)Cc2ccccc21` [compound 827255], under setting [8], the Ki amounted to 53.7 nM.
For `O=C(NCCCCCN1CCN(c2csc3cc(C(F)(F)F)ccc23)CC1)c1ccc2cc[nH]c2c1` [compound 826800], the Ki reads like this: (read-out: D3K1) 27.2 nM; under setting [3], 27.2 nM.
In the case of `O=C(NCCCCCN1CCN(c2csc3cc(F)ccc23)CC1)c1ccc(OC(F)(F)F)cc1` [compound 826777], the Ki under setting [3] turned out to be 4.56 nM.
For `O=C(NCCCCCN1CCCN(c2csc3cc(F)ccc23)CC1)c1ccc2[nH]ccc2c1` [S984509], under setting [2], the Ki came to 11.9 nM.
Consider `O=C(NCCCN1CCCN(c2csc3cc(F)ccc23)CC1)c1cccc(F)c1` [compound 827142], for which the Ki runs as follows: (Table 2, read-out: D3K1) 101 nM; under setting [5], 101 nM.
For the molecule `O=C(N[C@@H](CO)CCCN1CCN(c2csc3cc(C(F)(F)F)ccc23)CC1)c1ccc(-c2ccccc2)cc1` [compound 815670], the Ki (read-out: D3K1) worked out at 192 nM and the Ki under setting [3] was determined as 192 nM.
As for `O=C(NCCCCN1CCCN(c2csc3cc(C(F)(F)F)ccc23)CC1)c1cccc(F)c1` [S980635], the Ki under setting [2] is 71 nM.
Take `Cc1nnsc1C(=O)NCCCCN1CCCN(c2csc3cc(F)ccc23)CC1` [S981837]: under setting [2], the Ki stood at 1.3 nM.
Turning to `O=C(NCCCCCN1CCN(c2csc3cc(F)ccc23)CC1)c1cccc(F)c1` [compound 826782], the Ki under setting [3] was 4.55 nM.
`O=C(NCCCCCN1CCCN(c2csc3cc(F)ccc23)CC1)c1cccc(F)c1` [S984493]: under setting [2], the Ki turned out to be 25.9 nM.
As to `C[C@@H]1CN(c2csc3cc(F)ccc23)C[C@H](C)N1CCCCNC(=O)c1cc2ccccc2n1C` [compound 826961], the Ki under setting [8] was 51.2 nM.
Take `O=C(NCc1sccc1CN1CCN(c2csc3cc(F)ccc23)CC1)c1cccc2cc[nH]c12` [compound 826314]: under setting [7], the Ki stood at 46 nM.
In the case of `C[C@@H]1CN(c2csc3cc(C(F)(F)F)ccc23)C[C@H](C)N1CCCCNC(=O)c1cccs1` [compound 827046], the Ki under setting [8] was found to be 56.9 nM.
On the same count and under the same terms, the value for `C[C@@H]1CN(c2csc3cc(F)ccc23)C[C@H](C)N1CCCCNC(=O)c1ccc2cc[nH]c2c1` [compound 826965] was 25.6 nM.
Regarding `O=C(NCCCCN1CCCN(c2csc3cc(F)ccc23)CC1)c1cc2cc(O)ccc2[nH]1` [compound 817270], under setting [2], the Ki amounted to 0.448 nM.
On the same count and under the same terms, the value for `O=C(NCCCCCN1CCCN(c2csc3cc(F)ccc23)CC1)c1c2ccccc2cc2ccccc12` [S982542] was 57 nM.
Take `O=C(CCC1CCCC1)NC/C=C\CN1CCN(c2csc3cc(C(F)(F)F)ccc23)CC1` [compound 826345]: the Ki (read-out: D3K1) is 77 nM.
Take `O=C(NCCCCN1CCCN(c2csc3cc(F)ccc23)CC1)c1cccc2[nH]ccc12` [S977823]: the Ki under setting [2] was determined as 3.96 nM.
For the molecule `O=C(NCCCCCCN1CCN(c2csc3cc(C(F)(F)F)ccc23)CC1)c1cccc(C(F)(F)F)c1` [compound 826752], the Ki is 14 nM (read-out: D3K1) and 14 nM under setting [3].
`COc1cccc(C(=O)NC/C=C/CN2CCN(c3csc4cc(C(F)(F)F)ccc34)CC2)c1` [compound 827722]: the Ki (read-out: D3K1) was found to be 59 nM.
`Nc1cc2ccccc2cc1C(=O)NCCCCN1CCCN(c2csc3cc(F)ccc23)CC1` [compound 817259]: the Ki runs as follows: (Table 2, read-out: D3K1) 2.93 nM; under setting [5], 2.93 nM.
As for `C=CCCCCCCC(=O)NCCCCCN1CCC(c2noc3ccsc23)CC1` [compound 816203], the Ki under setting [2] came out at 94.1 nM.
For the molecule `Cc1nn(-c2ccccc2)nc1C(=O)NCCCCN1CCCN(c2csc3cc(C(F)(F)F)ccc23)CC1` [S980657], the Ki under setting [2] was found to be 175 nM.
In turn, `COc1ccc(OC(=O)NCC2CC2CN2CCC(c3noc4ccsc34)CC2)cc1` (stereo not drawn) [compound 831671] returned a Ki (D3 Ki (nM), the 25th table) of 96.4 nM.
With `O=C(NCc1sccc1CN1CCN(c2csc3cc(F)ccc23)CC1)c1sccc1-n1cccc1` [compound 826318], the Ki under setting [7] was 90 nM.
With `O=C(NCCCCN1CCCN(c2csc3cc(F)ccc23)CC1)c1cccc(C(F)(F)F)c1` [compound 822155], the Ki under setting [2] was determined as 10.8 nM.
For `O=C(NCCCCCN1CCCN(c2csc3cc(F)ccc23)CC1)c1ccc(-c2ccccn2)s1` [S984501], under setting [2], the Ki is 15.8 nM.
Consider `CC(C)(C)c1ccc(C(=O)NCc2sccc2CN2CCN(c3csc4cc(F)ccc34)CC2)cc1` [compound 826309], for which the Ki under setting [7] is 63 nM.
On to `COc1ccc(C(=O)NCCCCN2CCCN(c3csc4cc(C(F)(F)F)ccc34)CC2)cc1OC` [S980638], for which the Ki under setting [2] was found to be 39 nM.
With `CC(C)CCNC[C@@H]1C[C@H]1CN1CCN(c2csc3cc(C(F)(F)F)ccc23)CC1` [compound 832276], the Ki under setting [4] is 30.3 nM.

Source of the values: patent US7550469B2, “Heterocyclic amide derivatives and their use as dopamine D3 receptor ligands” (Aventis Pharmaceuticals Inc., priority 2001, dated 2009).
